# According to patent US20080153853A1, “USE OF MTKI 1 FOR TREATING OR PREVENTING BRAIN CANCER” (priority 2006, published 2008):
# Columns and labels:
# [1] = system: A431 vulval carcinoma cells (s.c. tumor); assay: Subcutaneous injection of A431 cells in rats: s.c. tumor growth; type: in vivo, rat; conditions: for Treatment versus Control (taking control as 100%), median s.c. A431 tumor volume: day 18, 24 hr after last treatment; for Effect on subcutaneous A431 tumor growth (median s.c. tumor volumes, FIG. 1): MTKI 1 p.o. at all doses tested (50, 75, 100 mpk), BCNU i.v. day 4 and day 18
# Experimental: A431 (ATCC, Rockville, Md. USA) vulval carcinoma cells were stereo-tactically injected into athymic nude rats and mice. Tumor growth delay was followed by using animal survival as readout in the rat study or using MRI imaging in the case of the mouse study. Subcutaneous Injection of Cells in Rats The same day of the stereotaxic injection, rats were injected subcutaneously with A431 cells at D0. The tumor was obtained in rats by subcutaneous (SC) injection of 1×10^7 A431 cells in RPMI medium (200 μl) in their right flank. For subcutaneous injection of tumor cells, rats were anesthetised by inhalation of Isoflurane Forene (Minerve, Bondoufle, France). MTKI 1 (Compound 1 in the figures hereinafter) was dissolved in a solution of 20% Hydroxypropyl-β-cyclodextrine (20% β-HP-Cyclodextrin, pH 4.0) and given by oral gavage, daily for a period of fourteen days starting four days post inoculation of the cells, i.e. from day 4-17. Vehicle treated animals only received the β-HP-Cyclodextrin solution. The reference compound BCNU (Carmustin) was dosed intravenously on day 4 and day 18.
# [2] = system: A431 vulval carcinoma cells (intracranial tumor); assay: Stereotaxic injection of A431 cells in the brain of rats: animal survival; type: in vivo, rat; conditions: rats with intracranial and s.c. A431 tumors, vehicle 49
# Source text: A431 (ATCC, Rockville, Md. USA) vulval carcinoma cells were stereo-tactically injected into athymic nude rats and mice. Tumor growth delay was followed by using animal survival as readout in the rat study or using MRI imaging in the case of the mouse study.
# Stereotaxic Injection of Cells in the Brain of Rats
# Forty (40) rats (Wistar, BDIX or Sprague Dawley) in part I and 40 nude rats were sterotaxically injected with cells at D0. For stereotaxic injection of tumor cells, rats were anesthetised by an intramuscular injection of a Ketamine (Ketamine500®, Ref 043KET204, Centravet, France) and Xylazine (Rompun®, Ref 002ROM001, Centravet, France) mixture (2/1, v/v, 70 and 15 mg/kg, respectively). 1×10^5 A431 Cells were stereotaxically injected using 4 independant stereotaxic apparatus (Kopf Instrument, Germany and Stoelting Company, USA) in the right frontal lobe with 1×10^5 tumor cells re-suspended in 5 μl of RPMI medium. Five μl of the cell suspension was injected according to SOP No TEC-083/001 at 0.5 μl/min. After cells injection, rats were observed during 1 hour.
# (§1) MTKI 1 (Compound 1 in the figures hereinafter) was dissolved in a solution of 20% Hydroxypropyl-β-cyclodextrine (20% β-HP-Cyclodextrin, pH 4.0) and given by oral gavage, daily for a period of fourteen days starting four days post inoculation of the cells, i.e. from day 4-17. Vehicle treated animals only received the β-HP-Cyclodextrin solution.
# (§2) The reference compound BCNU (Carmustin) was dosed intravenously on day 4 and day 18.
# [3] = Clinical signs of toxicity (body weight loss, behavioral changes) in treated tumor-bearing rats; conditions: high dose 15 mpk i.v. day 4 and day 18
# Experimental: as §1, §2
structure (smiles),measurement,setting,value
"COc1cc2ncnc3c2cc1OCCCCCN(C)Cc1ccc(Br)cc1N3 [MTKI 1, 4,6-ethanediylidenepyrimido[4,5-b][6,1,12]benzoxadiazacyclo-pentadecine, 17-bromo-8,9,10,11,12,13,14,19-octahydro-20-methoxy-13-methyl]","Treatment versus Control (taking control as 100%), median s.c. A431 tumor volume",[1]; 50 mpk p.o. QDx14 (day 4-17),5.37%
same,"Treatment versus Control (taking control as 100%), median s.c. A431 tumor volume",[1]; 75 mpk p.o. QDx14 (day 4-17),4.29%
same,"Treatment versus Control (taking control as 100%), median s.c. A431 tumor volume",[1]; 100 mpk p.o. QDx14 (day 4-17),3.17%
same,"Effect on subcutaneous A431 tumor growth (median s.c. tumor volumes, FIG. 1)",[1],clearly inhibited
same,Survival times (50%),[2]; 50 mpk p.o. daily day 4-17,61 days
same,Survival times (50%),[2]; 75 mpk p.o. daily day 4-17,83 days
same,Survival times (50%),[2]; 100 mpk p.o. daily day 4-17,88 days
"O=NN(CCCl)C(=O)NCCCl [BCNU, reference compound]","Effect on subcutaneous A431 tumor growth (median s.c. tumor volumes, FIG. 1)",[1],no effect
same,"Clinical signs of toxicity, i.e. body weight loss",[3],may have induced some mild toxicity
